Laboratory results reported in ChEMBL document CHEMBL1909046, “DrugMatrix in vitro pharmacology data”.

Legend:
[1] = DRUGMATRIX: Phorbol Ester radioligand binding (ligand: [3H] PDBu); type: cell membranes, Mus musculus, ICR, Brain, Membrane; conditions: Not Active = under 50% inhibition at 10 µM
[2] = DRUGMATRIX: Atrial Natriuretic Factor (ANF) radioligand binding (ligand: [125I] ANF (rat)); type: cell membranes, Cavia porcellus, Dunkin-Hartley, Adrenal gland, Membrane; conditions: Not Active = under 50% inhibition at 10 µM
[3] = target: T1, Neuropeptide Y receptor type 1 (Homo sapiens, UniProt P25929); type: cell membranes, Membrane; conditions: sk-n-mc; further: in other assays of this panel Not Active means under 50% inhibition at 10 µM
T1 sequence (P25929 whole entry): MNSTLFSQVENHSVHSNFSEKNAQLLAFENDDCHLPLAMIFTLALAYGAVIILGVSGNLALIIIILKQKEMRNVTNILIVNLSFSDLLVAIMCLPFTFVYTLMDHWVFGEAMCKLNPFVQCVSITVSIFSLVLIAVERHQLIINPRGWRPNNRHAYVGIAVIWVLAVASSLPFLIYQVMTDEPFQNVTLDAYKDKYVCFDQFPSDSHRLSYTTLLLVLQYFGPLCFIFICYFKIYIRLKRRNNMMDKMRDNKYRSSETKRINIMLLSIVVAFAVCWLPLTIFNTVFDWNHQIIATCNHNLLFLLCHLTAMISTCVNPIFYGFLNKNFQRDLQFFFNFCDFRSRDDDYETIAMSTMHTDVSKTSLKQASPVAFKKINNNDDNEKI

[4] = DRUGMATRIX: Glutamate, AMPA radioligand binding (ligand: [3H] AMPA); type: cell membranes, Rattus norvegicus, Wistar, Cerebral cortex, Membrane; conditions: Not Active = under 50% inhibition at 10 µM
[5] = DRUGMATRIX: Leukotriene, BLT (LTB4) radioligand binding (ligand: [3H]LTB4); type: cell membranes, Membrane; conditions: u-937; Not Active = under 50% inhibition at 10 µM
[6] = target: Aldo-keto reductase family 1 member B1 (Rattus norvegicus, UniProt P07943); assay: biochemical; type: tissue-based, Lens of camera-type eye;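 further: inhibition of aldose reductase enzyme activity, measured with DL-glyceraldehyde as the substrate; in other assays of this panel Not Active means under 50% inhibition at 10 µM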
[7] = target: T2, C-C chemokine receptor type 4 (Homo sapiens, UniProt P51679); type: cell membranes, Membrane; conditions: chem-1; further: in other assays of this panel Not Active means under 50% inhibition at 10 µM
T2 sequence (P51679 whole entry): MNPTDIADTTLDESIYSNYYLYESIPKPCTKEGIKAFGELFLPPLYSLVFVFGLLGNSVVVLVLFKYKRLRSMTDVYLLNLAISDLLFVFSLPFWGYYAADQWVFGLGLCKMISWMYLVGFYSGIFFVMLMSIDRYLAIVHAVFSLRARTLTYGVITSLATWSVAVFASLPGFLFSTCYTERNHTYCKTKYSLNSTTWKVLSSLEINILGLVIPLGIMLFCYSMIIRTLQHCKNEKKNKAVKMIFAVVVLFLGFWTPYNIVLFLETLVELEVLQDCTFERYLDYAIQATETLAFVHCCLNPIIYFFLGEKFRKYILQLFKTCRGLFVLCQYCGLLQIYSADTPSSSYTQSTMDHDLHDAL

[8] = target: T3, Alpha-1A adrenergic receptor (Rattus norvegicus, UniProt P43140); assay: DRUGMATRIX: Alpha-1A adrenergic receptor radioligand binding (ligand: prazosin); type: cell membranes, Wistar, Submaxillary gland, Membrane; conditions: Not Active = under 50% inhibition at 10 µM
T3 sequence (P43140 whole entry): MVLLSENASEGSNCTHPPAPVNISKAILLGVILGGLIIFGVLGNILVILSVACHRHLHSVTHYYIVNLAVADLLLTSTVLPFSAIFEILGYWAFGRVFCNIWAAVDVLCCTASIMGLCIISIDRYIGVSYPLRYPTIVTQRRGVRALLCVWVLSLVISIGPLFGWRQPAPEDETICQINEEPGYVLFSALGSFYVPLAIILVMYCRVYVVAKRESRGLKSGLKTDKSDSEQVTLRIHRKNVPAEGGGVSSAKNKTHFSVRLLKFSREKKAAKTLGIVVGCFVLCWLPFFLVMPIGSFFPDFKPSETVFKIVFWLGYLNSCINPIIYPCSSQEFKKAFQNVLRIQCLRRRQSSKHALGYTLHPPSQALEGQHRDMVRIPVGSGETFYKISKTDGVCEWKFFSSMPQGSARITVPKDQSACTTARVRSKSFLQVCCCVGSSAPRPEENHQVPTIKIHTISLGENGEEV

Row | Structure (SMILES) | IC50 [1] | Ki [1] | IC50 [2] | Ki [2] | IC50 [3] | IC50 [4] | Ki [4] | IC50 [5] | Ki [5] | IC50 [6] | IC50 [7] | IC50 [8] | IC50 ([8]; read-out: IC50) | Ki ([8]; read-out: Ki)
1 | Nn1nnc2ccccc21 | Not Active | Not Active | Not Active | Not Active | Not Active | Not Active | Not Active | Not Active | Not Active | Not Active | Not Active | Not Active |  | 
2 | CC[C@]1(O)CC[C@H]2[C@@H]3CCC4=CCCC[C@@H]4[C@H]3CC[C@@]21C | Not Active | Not Active | Not Active | Not Active | Not Active | Not Active | Not Active | Not Active | Not Active | Not Active | Not Active | Not Active |  | 
3 | N[C@@H](Cc1ccc(F)cc1)C(=O)O | Not Active | Not Active | Not Active | Not Active | Not Active | Not Active | Not Active | Not Active | Not Active | Not Active | Not Active | Not Active |  | 
4 | CCOC(=O)[C@H](CCc1ccccc1)N[C@@H](C)C(=O)N1Cc2ccccc2C[C@H]1C(=O)O | Not Active | Not Active | Not Active | Not Active | Not Active | Not Active | Not Active | Not Active | Not Active | Not Active | Not Active | Not Active |  | 
5 | O=C(c1ccccc1Cl)N1CCC(Cc2ccccc2)CC1 | Not Active | Not Active | Not Active | Not Active | Not Active | Not Active | Not Active | Not Active | Not Active | Not Active | Not Active | Not Active |  | 
6 | CCOC(=O)[C@H](CCc1ccccc1)N[C@@H](C)C(=O)N1CCC[C@H]1C(=O)O | Not Active | Not Active | Not Active | Not Active | Not Active | Not Active | Not Active | Not Active | Not Active | Not Active | Not Active | Not Active |  | 
7 | Clc1cc2c(cc1Cl)Oc1cc(Cl)c(Cl)cc1O2 [2,3,7,8-TETRACHLORODIBENZO-P-DIOXIN] | Not Active | Not Active | Not Active | Not Active | Not Active | Not Active | Not Active | Not Active | Not Active | Not Active | Not Active | Not Active |  | 
8 | C=C1/C(=C\C=C2/CCC[C@]3(C)[C@@H]([C@H](C)CCCC(C)C)CC[C@@H]23)C[C@@H](O)C[C@@H]1O [ALFACALCIDOL] | Not Active | Not Active | Not Active | Not Active | Not Active | Not Active | Not Active | Not Active | Not Active | Not Active | Not Active | Not Active |  | 
9 | CCCCCC[C@H]1C(=O)O[C@H](C)[C@H](NC(=O)c2cccc(NC=O)c2O)C(=O)O[C@@H](C)[C@@H]1OC(=O)CC(C)C [ANTIMYCIN A] | Not Active | Not Active | Not Active | Not Active | Not Active | Not Active | Not Active | Not Active | Not Active | Not Active | Not Active | Not Active |  | 
10 | C[C@@H]1CC[C@H]2[C@@H](C)C(=O)O[C@@H]3O[C@@]4(C)CC[C@@H]1[C@]32OO4 [ARTEMISININ] | Not Active | Not Active | Not Active | Not Active | Not Active | Not Active | Not Active | Not Active | Not Active | Not Active | Not Active | Not Active |  | 
11 | CO[C@H]1[C@@H](O)[C@H](N)[C@@H](O[C@H]2O[C@H]([C@H](C)N)CC[C@H]2N)[C@H](O)[C@@H]1N(C)C(=O)CN [ASTROMICIN] | Not Active | Not Active | Not Active | Not Active | Not Active | Not Active | Not Active | Not Active | Not Active | Not Active | Not Active | Not Active |  | 
12 | [N-]=[N+]=CC(=O)OC[C@H](N)C(=O)O [AZASERINE] | Not Active | Not Active | Not Active | Not Active | Not Active | Not Active | Not Active | Not Active | Not Active | Not Active | Not Active | Not Active |  | 
13 | CC[C@H]1OC(=O)[C@H](C)[C@@H](O[C@H]2C[C@@](C)(OC)[C@@H](O)[C@H](C)O2)[C@H](C)[C@@H](O[C@@H]2O[C@H](C)C[C@H](N(C)C)[C@H]2O)[C@](C)(O)C[C@@H](C)CN(C)[C@H](C)[C@@H](O)[C@]1(C)O [AZITHROMYCIN] | Not Active | Not Active | Not Active | Not Active | Not Active | Not Active | Not Active | Not Active | Not Active | Not Active | Not Active | Not Active |  | 
14 | CC(C)(C)c1ccc(S(=O)(=O)/C=C/C#N)cc1 [BAY-11-7085] | Not Active | Not Active | Not Active | Not Active | Not Active | Not Active | Not Active | Not Active | Not Active | Not Active | Not Active | Not Active |  | 
15 | CCc1oc2ccccc2c1C(=O)c1cc(Br)c(O)c(Br)c1 [BENZBROMARONE] | Not Active | Not Active | Not Active | Not Active | Not Active | Not Active | Not Active | Not Active | Not Active | Not Active | Not Active | Not Active |  | 
16 | O=c1cc(-c2ccccc2)oc2ccc3ccccc3c12 [BETA-NAPHTHOFLAVONE] | Not Active | Not Active | Not Active | Not Active | Not Active | Not Active | Not Active | Not Active | Not Active | Not Active | Not Active | Not Active |  | 
17 | CC(C)C[C@H]1C(=O)N2CCC[C@H]2[C@]2(O)O[C@](NC(=O)[C@@H]3C=C4c5cccc6[nH]c(Br)c(c56)C[C@H]4N(C)C3)(C(C)C)C(=O)N12 [BROMOCRIPTINE] | Not Active | Not Active | Not Active | Not Active | Not Active | Not Active | Not Active | Not Active | Not Active | Not Active | Not Active |  | 6.96 nM | 2.82 nM
18 | CS(=O)(=O)OCCCCOS(C)(=O)=O [BUSULFAN] | Not Active | Not Active | Not Active | Not Active | Not Active | Not Active | Not Active | Not Active | Not Active | Not Active | Not Active | Not Active |  | 
19 | N=C(N)N/N=C/c1c(Cl)cccc1Cl [GUANABENZ] | Not Active | Not Active | Not Active | Not Active | Not Active | Not Active | Not Active | Not Active | Not Active | Not Active | Not Active |  |  | 
